Calls of active or inactive are those of the source.
What was measured:
[1] = molecular target: T1, RNA-binding protein pos-1 (Caenorhabditis elegans, UniProt G5EF15); experiment: inhibitors of POS-1/mex-3 RNA binding, dose response, biochemical, fluorescence polarization (AID 1964);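 also: purified POS-1 fused to maltose binding protein made in E. coli; potency of compounds blocking POS-1 binding to fluorescent RNA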
T1 sequence (G5EF15 whole entry): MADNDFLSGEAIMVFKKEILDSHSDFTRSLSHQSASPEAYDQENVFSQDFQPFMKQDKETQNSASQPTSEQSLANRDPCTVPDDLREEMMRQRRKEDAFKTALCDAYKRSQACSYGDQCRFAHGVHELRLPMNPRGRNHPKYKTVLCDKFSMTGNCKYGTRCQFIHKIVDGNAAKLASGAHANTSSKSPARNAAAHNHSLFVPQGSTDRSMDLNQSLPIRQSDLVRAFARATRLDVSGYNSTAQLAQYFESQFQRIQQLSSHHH

[2] = molecular target: T2, Zinc finger protein mex-5 (Caenorhabditis elegans, UniProt Q9XUB2); experiment: MEX-5/TCR-2 RNA interaction inhibitors, dose response, biochemical, C. elegans, fluorescence polarization (AID 1960)
T2 sequence (Q9XUB2 whole entry): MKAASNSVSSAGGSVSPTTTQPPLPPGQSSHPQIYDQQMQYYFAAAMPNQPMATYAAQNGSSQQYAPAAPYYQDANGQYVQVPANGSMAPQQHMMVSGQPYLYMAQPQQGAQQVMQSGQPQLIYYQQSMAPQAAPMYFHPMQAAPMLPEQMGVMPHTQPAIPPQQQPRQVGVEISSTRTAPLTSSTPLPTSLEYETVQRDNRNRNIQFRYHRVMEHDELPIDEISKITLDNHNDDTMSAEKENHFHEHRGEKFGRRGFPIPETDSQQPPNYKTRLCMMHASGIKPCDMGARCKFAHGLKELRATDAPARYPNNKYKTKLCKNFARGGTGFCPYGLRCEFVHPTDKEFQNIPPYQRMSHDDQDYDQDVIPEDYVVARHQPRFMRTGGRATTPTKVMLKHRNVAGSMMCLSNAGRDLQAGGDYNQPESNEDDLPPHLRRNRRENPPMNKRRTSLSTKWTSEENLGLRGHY

[3] = C. albicans growth with fluconazole, confirmation, fluorescence, retest (AID 2467); assay type: functional, cell-based
[4] = molecular target: Dual specificity tyrosine-phosphorylation-regulated kinase 1A (Rattus norvegicus, UniProt Q63470); assay type: biochemical, Homo sapiens
[5] = molecular target: T3, Polyadenylate-binding protein 1 (Homo sapiens, UniProt P11940); experiment: PABP1 MLLE–PAM2 interaction inhibitors, dose response, miRNA deadenylation inhibitor project, biochemical, fluorescence polarization, Cy5-PAM2 peptide, secondary (AID 602260); assay type: functional; conditions: read-out: IC50_Mean
[6] = molecular target: T3, Polyadenylate-binding protein 1; experiment: PABP1 MLLE–PAM2 binding inhibitor potency, dose response, biochemical, fluorescence polarization, FITC-PAM2 peptide (AID 602259); assay type: functional; conditions: read-out: IC50_Mean

T3 sequence (P11940 whole entry): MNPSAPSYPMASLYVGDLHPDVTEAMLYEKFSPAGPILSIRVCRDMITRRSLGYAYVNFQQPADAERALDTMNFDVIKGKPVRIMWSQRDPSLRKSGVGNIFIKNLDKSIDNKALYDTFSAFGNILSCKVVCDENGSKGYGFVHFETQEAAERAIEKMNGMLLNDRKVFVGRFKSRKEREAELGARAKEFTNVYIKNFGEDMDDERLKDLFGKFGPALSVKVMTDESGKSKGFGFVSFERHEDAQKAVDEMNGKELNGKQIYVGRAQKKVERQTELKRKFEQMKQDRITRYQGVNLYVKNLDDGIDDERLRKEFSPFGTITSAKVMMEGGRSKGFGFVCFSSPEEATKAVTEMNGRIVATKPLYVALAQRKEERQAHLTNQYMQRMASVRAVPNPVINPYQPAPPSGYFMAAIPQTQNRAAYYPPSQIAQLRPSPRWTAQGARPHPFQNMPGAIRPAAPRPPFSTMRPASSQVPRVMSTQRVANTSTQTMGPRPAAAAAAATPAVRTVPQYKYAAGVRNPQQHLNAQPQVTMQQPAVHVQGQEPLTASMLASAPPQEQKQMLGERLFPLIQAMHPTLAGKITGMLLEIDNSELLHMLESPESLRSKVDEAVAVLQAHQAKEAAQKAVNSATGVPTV

With `CN1CCc2cc3c(c4c2[C@H]1[C@H](O)c1ccccc1-4)OCO3` the EC50 [1] was 11.9 µM (active), the EC50 [2] was 8.45 µM (inconclusive) and the EC50 [3] was 2.74 µM (active). For the same molecule, the AC50 [4] was 0.877 µM (active), the IC50 [5] was > 66 µM (inactive) and the IC50 [6] was 25.8 µM (inactive).
